Data on 22 compounds can be found in patent US9926282B2, “Phthalazinones and isoquinolinones as rock inhibitors” (BRISTOL-MYERS SQUIBB COMPANY, priority 2013, dated 2018).

The target of one assay is ROCK1 (Homo sapiens (Human), UniProt Q13464). In words: ROCK assay (LABCHIP peptide phosphorylation), ROCK1. The class given is biochemical. Particulars: 5 μM ATP, 1.5 μM peptide substrate; read-out: ROCK1 IC50.
The next assay addresses ROCK2 (Homo sapiens (Human), UniProt O75116). In words: ROCK assay (LABCHIP peptide phosphorylation), ROCK2. Particulars: 5 μM ATP, 1.5 μM peptide substrate. The assay is classed as biochemical.

What is called IC50 is the point on the concentration scale where inhibition reaches its midpoint.

Chain of ROCK1 (Q13464 whole entry, species assumed): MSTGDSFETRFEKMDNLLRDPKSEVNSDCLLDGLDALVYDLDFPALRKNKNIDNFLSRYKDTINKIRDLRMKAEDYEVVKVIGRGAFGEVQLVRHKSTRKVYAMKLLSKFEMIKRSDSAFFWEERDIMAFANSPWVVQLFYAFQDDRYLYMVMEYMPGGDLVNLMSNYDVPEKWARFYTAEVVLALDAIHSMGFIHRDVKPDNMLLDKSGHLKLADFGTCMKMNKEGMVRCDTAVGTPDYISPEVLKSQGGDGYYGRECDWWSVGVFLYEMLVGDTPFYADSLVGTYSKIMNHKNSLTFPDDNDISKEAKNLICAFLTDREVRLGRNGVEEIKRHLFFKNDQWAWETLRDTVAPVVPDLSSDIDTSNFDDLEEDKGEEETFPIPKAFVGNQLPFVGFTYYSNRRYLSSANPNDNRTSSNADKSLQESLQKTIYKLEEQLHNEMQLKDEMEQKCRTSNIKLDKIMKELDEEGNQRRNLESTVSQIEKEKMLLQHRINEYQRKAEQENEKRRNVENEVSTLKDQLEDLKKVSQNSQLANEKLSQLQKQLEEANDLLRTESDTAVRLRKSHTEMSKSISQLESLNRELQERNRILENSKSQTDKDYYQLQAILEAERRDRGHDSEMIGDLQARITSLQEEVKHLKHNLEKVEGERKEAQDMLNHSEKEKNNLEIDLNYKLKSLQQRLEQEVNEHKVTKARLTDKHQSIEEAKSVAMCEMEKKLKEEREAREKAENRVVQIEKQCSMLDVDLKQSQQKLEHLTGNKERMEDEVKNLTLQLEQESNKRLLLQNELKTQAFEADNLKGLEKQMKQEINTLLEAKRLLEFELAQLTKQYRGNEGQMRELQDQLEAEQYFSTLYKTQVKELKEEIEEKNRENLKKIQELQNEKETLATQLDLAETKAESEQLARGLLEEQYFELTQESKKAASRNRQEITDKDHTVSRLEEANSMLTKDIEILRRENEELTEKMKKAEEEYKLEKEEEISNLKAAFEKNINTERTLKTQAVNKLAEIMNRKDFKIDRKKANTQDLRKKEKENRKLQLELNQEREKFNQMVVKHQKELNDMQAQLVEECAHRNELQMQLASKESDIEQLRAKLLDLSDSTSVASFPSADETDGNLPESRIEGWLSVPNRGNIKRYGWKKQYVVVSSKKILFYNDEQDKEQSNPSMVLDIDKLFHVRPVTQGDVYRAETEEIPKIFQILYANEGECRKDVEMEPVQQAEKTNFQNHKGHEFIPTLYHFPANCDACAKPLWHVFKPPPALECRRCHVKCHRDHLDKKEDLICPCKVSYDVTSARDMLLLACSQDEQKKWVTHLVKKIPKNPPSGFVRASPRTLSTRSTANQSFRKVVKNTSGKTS
Chain of ROCK2 (O75116 whole entry, species assumed): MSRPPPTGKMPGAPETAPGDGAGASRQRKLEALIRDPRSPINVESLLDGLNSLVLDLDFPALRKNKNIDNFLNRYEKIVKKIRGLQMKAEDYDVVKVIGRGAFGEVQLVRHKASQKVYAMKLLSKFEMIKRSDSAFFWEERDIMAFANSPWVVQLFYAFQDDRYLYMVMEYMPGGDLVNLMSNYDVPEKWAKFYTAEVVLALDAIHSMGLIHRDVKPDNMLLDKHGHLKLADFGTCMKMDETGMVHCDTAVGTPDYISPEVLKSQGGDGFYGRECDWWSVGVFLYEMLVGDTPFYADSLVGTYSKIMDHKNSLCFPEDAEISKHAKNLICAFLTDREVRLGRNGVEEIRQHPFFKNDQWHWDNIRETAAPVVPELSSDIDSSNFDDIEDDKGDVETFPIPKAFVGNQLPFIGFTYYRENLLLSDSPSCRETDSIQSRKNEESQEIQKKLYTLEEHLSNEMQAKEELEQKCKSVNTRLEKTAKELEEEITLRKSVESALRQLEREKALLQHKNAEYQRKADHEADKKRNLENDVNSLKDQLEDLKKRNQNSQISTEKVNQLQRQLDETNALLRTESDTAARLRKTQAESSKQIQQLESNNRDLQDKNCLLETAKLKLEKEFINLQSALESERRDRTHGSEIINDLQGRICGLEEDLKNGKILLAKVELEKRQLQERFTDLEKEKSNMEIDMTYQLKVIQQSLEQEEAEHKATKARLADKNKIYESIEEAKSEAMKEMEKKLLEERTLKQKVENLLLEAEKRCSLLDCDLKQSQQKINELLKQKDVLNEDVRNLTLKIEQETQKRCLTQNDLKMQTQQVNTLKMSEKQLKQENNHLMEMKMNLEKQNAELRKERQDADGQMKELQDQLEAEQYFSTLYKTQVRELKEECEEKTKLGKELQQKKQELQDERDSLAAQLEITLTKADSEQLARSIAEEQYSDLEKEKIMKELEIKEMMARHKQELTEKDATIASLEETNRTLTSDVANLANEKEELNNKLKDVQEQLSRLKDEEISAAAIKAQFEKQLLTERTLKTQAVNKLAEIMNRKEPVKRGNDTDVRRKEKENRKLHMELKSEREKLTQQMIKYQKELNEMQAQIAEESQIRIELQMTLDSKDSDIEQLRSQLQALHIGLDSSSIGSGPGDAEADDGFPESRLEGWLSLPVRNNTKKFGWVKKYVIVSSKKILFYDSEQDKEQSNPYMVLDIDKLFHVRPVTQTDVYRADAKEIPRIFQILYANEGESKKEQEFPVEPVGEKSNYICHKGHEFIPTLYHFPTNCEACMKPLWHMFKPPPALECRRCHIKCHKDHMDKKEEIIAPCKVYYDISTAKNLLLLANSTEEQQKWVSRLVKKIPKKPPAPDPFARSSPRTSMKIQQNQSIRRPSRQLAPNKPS

Turning to `COc1cc(C)c2c(c1)CCN2C(=O)Cc1ccc(-c2n[nH]c(=O)c3ccccc23)cc1` [Example 252, 4-(4-(2-(5-Methoxy-7-methylindolin-1-yl)-2-oxoethyl)phenyl)phthalazin-1(2H)-one], the IC50 fell in the range of 1000 to 50000 nM on ROCK1 and 101 to 1000 nM at ROCK2.

With `CC(C(=O)N1Cc2ccccc2C1)c1ccc(-c2n[nH]c(=O)c3ccccc23)cc1` (centres unmarked) [Example 43, 4-(4-(1-(Isoindolin-2-yl)-1-oxopropan-2-yl)phenyl)phthalazin-1(2H)-one], the IC50 fell in the range of 1000 to 50000 nM on ROCK1 and 101 to 1000 nM against ROCK2.

For the compound `Cc1c(C(=O)Nc2ccc(-c3n[nH]c(=O)c4ccccc34)cc2)nnn1-c1cccc(C(F)(F)F)c1` [Example 232, 5-methyl-N-[4-(4-oxo-3,4-dihydrophthalazin-1-yl)phenyl]-1-[3-(trifluoromethyl)phenyl]-1H-1,2,3-triazole-4-carboxamide], the IC50 was 101 to 1000 nM on ROCK1 and 0.1 to 100 nM against ROCK2.

`Cc1cc(NC(=O)c2nn(CC3CCOCC3)c3ccccc23)ccc1-c1n[nH]c(=O)c2ccccc12` [Example 313, N-[3-methyl-4-(4-oxo-3,4-dihydrophthalazin-1-yl)phenyl]-1-(oxan-4-ylmethyl)-1H-indazole-3-carboxamide]: the IC50 at ROCK1 and against ROCK2 was 0.1 to 100 nM in each case.

`CN(C)c1ccc(C(=O)Nc2ccc(-c3n[nH]c(=O)c4ccccc34)cc2)cc1` [Example 58, 4-(dimethylamino)-N-[4-(4-oxo-3,4-dihydrophthalazin-1-yl)phenyl]benzamide]: the IC50 on ROCK1 and against ROCK2 was 0.1 to 100 nM each time.

As to `Cc1nc(C(=O)Nc2ccc(-c3n[nH]c(=O)c4ccccc34)cc2)c[nH]1` [Example 242, 2-methyl-N-[4-(4-oxo-3,4-dihydrophthalazin-1-yl)phenyl]-1H-imidazole-4-carboxamide], the IC50 on ROCK1 lay in the range of 101 to 1000 nM; against ROCK2, 0.1 to 100 nM.

As for `CN(C)CCOc1ccc2c(C(=O)Nc3ccc(-c4n[nH]c(=O)c5ccccc45)cc3)cnn2c1` [Example 177, 6-[2-(dimethylamino)ethoxy]-N-[4-(4-oxo-3,4-dihydrophthalazin-1-yl)phenyl]pyrazolo[1,5-a]pyridine-3-carboxamide], the IC50 on ROCK1 and on ROCK2 was 0.1 to 100 nM throughout.

Consider `Cc1cc(CC(=O)N2Cc3ccccc3C2)ccc1-c1n[nH]c(=O)c2ccccc12` [Example 260, 4-(4-(2-(Isoindolin-2-yl)-2-oxoethyl)-2-methylphenyl)phthalazin-1(2H)-one], for which the IC50 on ROCK1 lay in the range of 101 to 1000 nM; on ROCK2 it was 0.1 to 100 nM.

Regarding `Cc1nn(-c2ccccc2)cc1C(=O)Nc1ccc(-c2n[nH]c(=O)c3ccccc23)cc1` [Example 228, 3-methyl-N-[4-(4-oxo-3,4-dihydrophthalazin-1-yl)phenyl]-1-phenyl-1H-pyrazole-4-carboxamide], the IC50 on ROCK1 and against ROCK2 was 0.1 to 100 nM throughout.

`O=C(Cc1ccc(-c2n[nH]c(=O)c3ccccc23)cc1)N1CCN(Cc2ccccc2)CC1` [Example 12, 4-{4-[2-(4-benzylpiperazin-1-yl)-2-oxoethyl]phenyl}-1,2-dihydrophthalazin-1-one]: the IC50 on ROCK1 and against ROCK2 was 1000 to 50000 nM in each case.

On to `COc1ccc2c(c1)N(C(=O)Nc1ccc(-c3c[nH]c(=O)c4ccccc34)cc1)CC2` [Example 80, 6-Methoxy-N-(4-(1-oxo-1,2-dihydroisoquinolin-4-yl)phenyl)indoline-1-carboxamide], for which the IC50 on ROCK1 and on ROCK2 was 0.1 to 100 nM throughout.

With `CN1CCC(Cn2nc(C(=O)Nc3ccc(-c4n[nH]c(=O)c5ccccc45)cc3)c3ccccc32)CC1` [Example 356, 1-((1-Methylpiperidin-4-yl)methyl)-N-(4-(4-oxo-3,4-dihydrophthalazin-1-yl)phenyl)-1H-indazole-3-carboxamide], the values for the IC50 on ROCK1 and against ROCK2 were 0.1 to 100 nM and 101 to 1000 nM, respectively.

For the compound `COc1ccc(C#N)c(-n2cnc(C(=O)Nc3ccc(-c4n[nH]c(=O)c5ccccc45)cc3)n2)c1` [Example 239, 1-(2-cyano-5-methoxyphenyl)-N-[4-(4-oxo-3,4-dihydrophthalazin-1-yl)phenyl]-1H-1,2,4-triazole-3-carboxamide], the IC50 at ROCK1 was in the range of 101 to 1000 nM; on ROCK2, 0.1 to 100 nM.

Turning to `CN1CCC(Oc2ccc3c(c2)N(C(=O)Cc2ccc(-c4n[nH]c(=O)c5ccccc45)cc2)CC3)CC1` [Example 282, 4-[4-(2-{6-[(1-methylpiperidin-4-yl)oxy]-2,3-dihydro-1H-indol-1-yl}-2-oxoethyl)phenyl]-1,2-dihydrophthalazin-1-one], the IC50 at ROCK1 was in the range of 101 to 1000 nM; on ROCK2, 0.1 to 100 nM.

Turning to `Cn1nc(C(=O)Nc2ccc(-c3n[nH]c(=O)c4ccccc34)cc2)cc1C12CC3CC(CC(C3)C1)C2` [Example 201, 5-(adamantan-1-yl)-1-methyl-N-[4-(4-oxo-3,4-dihydrophthalazin-1-yl)phenyl]-1H-pyrazole-3-carboxamide], the IC50 on ROCK1 and on ROCK2 was 0.1 to 100 nM throughout.

Regarding `Cn1nc2c(c1C(=O)Nc1ccc(-c3n[nH]c(=O)c4ccccc34)cc1)CCCC2` [Example 116, 2-methyl-N-[4-(4-oxo-3,4-dihydrophthalazin-1-yl)phenyl]-4,5,6,7-tetrahydro-2H-indazole-3-carboxamide], the IC50 at ROCK1 and against ROCK2 was 0.1 to 100 nM in each case.

For the compound `CN(C(=O)Cc1ccc(-c2n[nH]c(=O)c3ccccc23)cc1)c1ccccc1` [Example 22, N-methyl-2-[4-(4-oxo-3,4-dihydrophthalazin-1-yl)phenyl]-N-phenylacetamide], the IC50 at ROCK1 and against ROCK2 was 1000 to 50000 nM in each case.

Regarding `O=C(Nc1ccc(-c2n[nH]c(=O)c3ccccc23)cc1)c1cnn(C2COC2)c1` [Example 389, 1-(Oxetan-3-yl)-N-(4-(4-oxo-3,4-dihydrophthalazin-1-yl)phenyl)-1H-pyrazole-4-carboxamide], the values for the IC50 on ROCK1 and against ROCK2 were 101 to 1000 nM and 0.1 to 100 nM, respectively.

Regarding `Cc1cc(NC(=O)c2cnc3ccccn23)ccc1-c1n[nH]c(=O)c2ccccc12` [Example 312, N-[3-methyl-4-(4-oxo-3,4-dihydrophthalazin-1-yl)phenyl]imidazo [1,2-a]pyridine-3-carboxamide], the IC50 at ROCK1 was in the range of 101 to 1000 nM; against ROCK2, 0.1 to 100 nM.

For the compound `COc1ccccc1-n1cc(C(=O)Nc2ccc(-c3n[nH]c(=O)c4ccccc34)cc2)cn1` [Example 197, 1-(2-methoxyphenyl)-N-[4-(4-oxo-3,4-dihydrophthalazin-1-yl)phenyl]-1H-pyrazole-4-carboxamide], the IC50 at ROCK1 and on ROCK2 was 0.1 to 100 nM each time.

Regarding `COc1ccc2[nH]nc(C(=O)Nc3ccc(-c4n[nH]c(=O)c5ccccc45)cc3)c2c1` [Example 123, 5-methoxy-N-[4-(4-oxo-3,4-dihydrophthalazin-1-yl)phenyl]-1H-indazole-3-carboxamide], the figures for the IC50 on ROCK1 and against ROCK2 were 101 to 1000 nM and 0.1 to 100 nM, respectively.

As for `CC1(C)CCc2[nH]cc(C(=O)Nc3ccc(-c4n[nH]c(=O)c5ccccc45)cc3)c2C1=O` [Example 97, 5,5-dimethyl-4-oxo-N-[4-(4-oxo-3,4-dihydrophthalazin-1-yl)phenyl]-4,5,6,7-tetrahydro-1H-indole-3-carboxamide], the IC50 on ROCK1 and on ROCK2 was 101 to 1000 nM in each case.
